ChEMBL document CHEMBL1121820, “Synthesis and antitumor activity of simple vinyl and alpha-methylene-gamma-butyrolactone sulfonate esters and silyl enol ethers” (1981)

Columns and labels:
P388 [1] = experiment: Compound was studied in P388 test system for the antitumor activity expressed as number of animals survived/Number of animals tested at a dose of 400 mg/kg; 5/5; assay type: functional, Mus musculus
P388 [2] = experiment: Compound was studied in P388 test system for the antitumor activity expressed as percent maximum life span of animals at a dose of 400 mg/kg; assay type: functional; details: Mus musculus
L1210 [3] = experiment: Compound was studied in L1210 leukemia test system for the antitumor activity expressed as number animals survived/Number of animals tested at dose of 200 mg/kg; 6/6; assay type: functional, Mus musculus
L1210 [4] = experiment: Compound was studied in L1210 leukemia test system for the antitumor activity expressed as percent maximum life span of animals at dose of 200 mg/kg; assay type: functional; details: Mus musculus
P388 [5] = experiment: Compound was studied in P388 test system for the antitumor activity expressed as number of animals survived/Number of animals tested at a dose of 200 mg/kg; 5/6; assay type: functional, Mus musculus
P388 [6] = experiment: Compound was studied in P388 test system for the antitumor activity expressed as percent maximum life span of animals at a dose of 200 mg/kg; assay type: functional; details: Mus musculus
P388 [7] = experiment: Compound was studied in P388 test system for the antitumor activity expressed as percent maximum life span of animals at dose of 50 mg/kg; assay type: functional; details: Mus musculus
P388 [8] = experiment: Compound was studied in P388 test system for the antitumor activity expressed as number of animals survived/Number of animals tested at dose of 50 mg/kg; 6/6; assay type: functional, Mus musculus
L1210 [9] = experiment: Compound was studied in L1210 leukemia test system for the antitumor activity expressed as number of animals survived/Number of animals tested at dose of 25 mg/kg; 5/6; assay type: functional, Mus musculus
L1210 [10] = experiment: Compound was studied in L1210 leukemia test system for the antitumor activity expressed as percent maximum life span of animals at dose of 25 mg/kg; assay type: functional; details: Mus musculus
L1210 [11] = experiment: Compound was studied in L1210 leukemia test system for the antitumor activity expressed as number of animals survived/Number of animals tested at dose of 22.5 mg/kg; 6/6; assay type: functional, Mus musculus
P388 [12] = experiment: Compound was studied in P388 test system for the antitumor activity expressed as percent maximum life span of animals at dose of 120 mg/kg; assay type: functional; details: Mus musculus
L1210 [13] = experiment: Compound was studied in L1210 leukemia test system for the antitumor activity expressed as percent maximum life span of animals at dose of 22.5 mg/kg; assay type: functional; details: Mus musculus
P388 [14] = experiment: Compound was studied in P388 test system for the antitumor activity expressed as number of animals survived/Number of animals tested at dose of 120 mg/kg; 6/6; assay type: functional, Mus musculus
P388 [15] = experiment: Compound was studied in P388 test system for the antitumor activity expressed as number of animals survived/Number of animals tested at a dose of 100 mg/kg; 6/6; assay type: functional, Mus musculus
P388 [16] = experiment: Compound was studied in P388 test system for the antitumor activity expressed as percent maximum life span of animals at a dose of 100 mg/kg; assay type: functional; details: Mus musculus
L1210 [17] = experiment: Compound was studied in L1210 leukemia test system for the antitumor activity expressed as percent maximum life span of animals at dose of 50 mg/kg; assay type: functional; details: Mus musculus
P388 [18] = experiment: Compound was studied in P388 test system for the antitumor activity expressed as number of animals survived/Number of animals tested at dose of 25 mg/kg; 6/6; assay type: functional, Mus musculus
P388 [19] = experiment: Compound was studied in P388 test system for the antitumor activity expressed as percent maximum life span of animals at dose of 25 mg/kg; assay type: functional; details: Mus musculus
L1210 [20] = experiment: Compound was studied in L1210 leukemia test system for the antitumor activity expressed as number animals survived/Number of animals tested at dose of 50 mg/kg; 6/6; assay type: functional, Mus musculus
Mus musculus [21] = experiment: Compound was studied in CD8F test system for the antitumor activity expressed as number of animals survived/Number of animals tested at dose of 250 mg/kg; 10/10; assay type: functional
[22] = system: Lewis lung carcinoma cell line; experiment: Compound was studied in LL test system for the antitumor activity expressed as number of animals survived/Number of animals tested at dose of 12.5 mg/kg; 10/10; assay type: functional, Mus musculus
P388 [23] = experiment: Compound was studied in P388 test system for the antitumor activity expressed as percent maximum life span of animals; assay type: functional, Mus musculus
P388 [24] = experiment: Compound was studied in P388 test system for the antitumor activity expressed as number of animals survived/Number of animals tested at 200 mg/kg; 6/6; assay type: functional, Mus musculus
B16 [25] = experiment: Compound was studied in B16 test system for the antitumor activity expressed as percent maximum life span of animals at dose of 200 mg/kg; assay type: functional; details: Mus musculus
Mus musculus [26] = experiment: Compound was studied in CD8F test system for the antitumor activity expressed as percent maximum life span of animals at dose of 250 mg/kg; assay type: functional
L1210 [27] = experiment: Compound was studied in L1210 leukemia test system for the antitumor activity expressed as percent maximum life span of animals at dose of 400 mg/kg; assay type: functional; details: Mus musculus
L1210 [28] = experiment: Compound was studied in L1210 leukemia test system for the antitumor activity expressed as number animals survived/Number of animals tested at dose of 400 mg/kg; 6/6; assay type: functional, Mus musculus
[29] = system: Lewis lung carcinoma cell line; experiment: Compound was studied in LL test system for the antitumor activity expressed as percent maximum life span of animals at dose of 12.5 mg/kg; assay type: functional; details: Mus musculus
B16 [30] = experiment: Compound was studied in B16 test system for the antitumor activity expressed as number of animals survived/Number of animals tested at dose of 200 mg/kg; […]; assay type: functional, Mus musculus
P388 [31] = experiment: Compound was studied in P388 test system for the antitumor activity expressed as number of animals survived/Number of animals tested at a dose of 200 mg/kg; 6/6; assay type: functional, Mus musculus
Mus musculus [32] = experiment: Compound was studied in CD8F test system for the antitumor activity expressed as number of animals survived/Number of animals tested at dose of 25 mg/kg; 10/10
Mus musculus [33] = experiment: Compound was studied in CD8F test system for the antitumor activity expressed as percent maximum life span of animals at dose of 25 mg/kg; assay type: functional
L1210 [34] = experiment: Compound was studied in L1210 leukemia test system for the antitumor activity expressed as number animals survived/Number of animals tested at dose of 200 mg/kg; 10/10; assay type: functional, Mus musculus
P388 [35] = experiment: Compound was studied in P388 test system for the antitumor activity expressed as number of animals survived/Number of animals tested at a dose of 50 mg/kg; 6/6; assay type: functional, Mus musculus
P388 [36] = experiment: Compound was studied in P388 test system for the antitumor activity expressed as percent maximum life span of animals at a dose of 50 mg/kg; assay type: functional; details: Mus musculus
P388 [37] = experiment: Compound was studied in P388 test system for the antitumor activity expressed as number of animals survived/Number of animals tested at a dose of 100 mg/kg; 5/6; assay type: functional, Mus musculus
L1210 [38] = experiment: Compound was studied in L1210 leukemia test system for the antitumor activity expressed as number animals survived/Number of animals tested at dose of 25 mg/kg; 5/6; assay type: functional, Mus musculus
P388 [39] = experiment: Compound was studied in P388 test system for the antitumor activity expressed as number of animals survived/Number of animals tested at dose of 37.5 mg/kg; 6/6; assay type: functional, Mus musculus
P388 [40] = experiment: Compound was studied in P388 test system for the antitumor activity expressed as percent maximum life span of animals at dose of 37.5 mg/kg; assay type: functional; details: Mus musculus

## O=S(=O)(OC1=CCCCCC1)C(F)(F)F
P388 [1]
  Ratio: 5
P388 [2]
  ILS at 400 mg/kg: 15%

## O=C1O[C@@H]2CCCCC2/C1=C/OS(=O)(=O)C(F)(F)F (stereo partly specified)
L1210 [3]
  Ratio: 6
L1210 [4]
  ILS at 200 mg/kg: 17%

## O=S(=O)(OC=C1CCCCC1)C(F)(F)F
P388 [5]
  Ratio: 5
P388 [6]
  ILS at 200 mg/kg: 12%

## CS(=O)(=O)O/C=C1\CCOC1=O
P388 [7]
  ILS at 50 mg/kg: 32%
P388 [8]
  Ratio: 6
L1210 [9]
  Ratio: 5
L1210 [10]
  ILS at 25 mg/kg: 6%

## CS(=O)(=O)O/C=C1\C(=O)O[C@@H]2CCCCC12 (stereo partly specified)
L1210 [11]
  Ratio: 6
P388 [12]
  ILS at 120 mg/kg: 25%
L1210 [13]
  ILS at 22.5 mg/kg: 11%
P388 [14]
  Ratio: 6

## O=S(=O)(OC(=C(c1ccccc1)c1ccccc1)c1ccccc1)C(F)(F)F
P388 [15]
  Ratio: 6
P388 [16]
  ILS at 100 mg/kg: 16%

## CC1(C)CC(=O)C=C(OS(=O)(=O)C(F)(F)F)C1
L1210 [17]
  ILS at 50 mg/kg: 3%
P388 [18]
  Ratio: 6
P388 [19]
  ILS at 25 mg/kg: 12%
L1210 [20]
  Ratio: 6

## C[Si](C)(C)O/C=C1\CCOC1=O
Mus musculus [21]
  Ratio: 10
[22]
  Ratio: 10
P388 [23]
  ILS: 25%
P388 [24]
  Ratio: 6
B16 [25]
  ILS at 200 mg/kg: 6%
Mus musculus [26]
  ILS at 250 mg/kg: 42%
L1210 [27]
  ILS at 400 mg/kg: 12%
L1210 [28]
  Ratio: 6
[29]
  ILS at 12.5 mg/kg: 16%
B16 [30]
  Ratio: 10

## CC(C)=CO[Si](C)(C)C
P388 [6]
  ILS at 200 mg/kg: 14%
P388 [31]
  Ratio: 6

## O=S(=O)(O/C1=C/CCCCCC1)C(F)(F)F
P388 [5]
  Ratio: 5
P388 [6]
  ILS at 200 mg/kg: 14%
P388 [15]
  Ratio: 6
P388 [16]
  ILS at 100 mg/kg: 13%

## C[Si](C)(C)O/C=C1\CCCCC1=O
P388 [8]
  Ratio: 6
L1210 [4]
  ILS at 200 mg/kg: 5%
Mus musculus [32]
  Ratio: 1
Mus musculus [33]
  ILS at 25 mg/kg: 21%
L1210 [34]
  Ratio: 10

## CC(C)=COS(=O)(=O)C(F)(F)F
P388 [35]
  Ratio: 6
P388 [36]
  ILS at 50 mg/kg: -1%

## O=S(=O)(OC1=CCCCC1)C(F)(F)F
P388 [35]
  Ratio: 6
P388 [36]
  ILS at 50 mg/kg: 14%

## C/C(=C\O[Si](C)(C)C)c1ccccc1
P388 [37]
  Ratio: 5
P388 [16]
  ILS at 100 mg/kg: 8%

## CCOC1=CC(=O)/C(=C/O[Si](C)(C)C)CC1
P388 [8]
  Ratio: 6

## O=C1OCC/C1=C\OS(=O)(=O)C(F)(F)F
L1210 [38]
  Ratio: 5
P388 [39]
  Ratio: 6
P388 [40]
  ILS at 37.5 mg/kg: 26%
L1210 [10]
  ILS at 25 mg/kg: 6%

## C[Si](C)(C)OC=C1CCCCC1
P388 [15]
  Ratio: 6
P388 [16]
  ILS at 100 mg/kg: 22%

## CC(C)=C(C)OS(=O)(=O)C(F)(F)F
P388 [15]
  Ratio: 6
P388 [16]
  ILS at 100 mg/kg: 14%
